Laboratory results published in patent publication US11840686B2, “Modulation of prekallikrein (PKK) expression” (Ionis Pharmaceuticals, Inc., priority 2013, dated 2023).
Strand notation (5' to 3'): a small letter for the sugar, then the base; units joined by * are phosphorothioate-linked, units joined directly phosphodiester-linked; [ ] holds rarer units or linkages, { } end groups; capitals alone tell only the bases. e = 2'-O-(2-methoxyethyl) (MOE); k = constrained ethyl (cEt); [5mC] = 5-methylcytosine; d = 2'-deoxy (DNA)

Key:
Type in all cases: cell-based
human PKK mRNA [1] = test: Antisense inhibition of human PKK mRNA in HepaRG cells, 5,000 nM (Example 2); conditions: HepaRG cells, electroporation with 5,000 nM antisense oligonucleotide, approximately 24 hours, PKK mRNA by RT-PCR (RTS3454), relative to untreated control cells
In short: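 qRT-PCR (RTS3454) read-out, RIBOGREEN-normalized; % inhibition vs untreated cells. HepaRG, 20,000 cells/well, electroporation, 5,000 nM ASO, ~24 h.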

human PKK mRNA [2] = test: Dose-dependent antisense inhibition of human PKK in HepaRG cells, 0.19-5.00 uM (Example 5); conditions: for percent inhibition of PKK mRNA, 0.19 μM: 0.19 μM antisense oligonucleotide; for percent inhibition of PKK mRNA, 0.56 μM: 0.56 μM antisense oligonucleotide; for percent inhibition of PKK mRNA, 1.67 μM: 1.67 μM antisense oligonucleotide; for percent inhibition of PKK mRNA, 5.00 μM: 5.00 μM antisense oligonucleotide
Procedure: Cells were plated at a density of 20,000 cells per well and transfected using electroporation with 0.19 μM, 0.56 μM, 1.67 μM, and 5.00 μM concentrations of antisense oligonucleotide. After a treatment period of approximately 16 hours, RNA was isolated from the cells and PKK mRNA levels were measured by quantitative real-time PCR. Human PKK primer probe set RTS3454 was used to measure mRNA levels. PKK mRNA levels were adjusted according to total RNA content, as measured by RIBOGREEN®. The antisense oligonucleotides were tested in a series of experiments that had similar culture conditions.
The half maximal inhibitory concentration (IC50) of each oligonucleotide is also presented.

human PKK mRNA [3] = test: Antisense inhibition of human PKK mRNA in HepaRG cells, 1,000 nM, MOE/deoxy/cEt oligonucleotides (Example 3); conditions: PKK mRNA, HepaRG cells, 1,000 nM antisense oligonucleotide; Table 31
In short: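 Readout is percent PKK mRNA reduction against untreated controls, by real-time PCR (RTS3454) adjusted for total RNA via RIBOGREEN. Oligonucleotides, phosphorothioate gapmers of 16 nucleosides with cEt, MOE and deoxy sugars, were delivered at 1,000 nM by electroporation to 20,000 HepaRG cells/well for roughly 24 h.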

[4] = Table 34, HepaRG, electroporation, ~16 h
[5] = Table 34, PKK mRNA, HepaRG, electroporation, ~16 h
[6] = HepaRG cells, electroporation, approximately 16 hours, Table 35
[7] = HepaRG cells, electroporation, approximately 16 hours, Table 38
[8] = 4 point dose response, HepaRG cells, Table 38

546158 (e[5mC]*eT*eT*eG*eG*dG*dT*dG*dG*dA*dA*dT*dG*dT*dG*e[5mC]*eA*e[5mC]*e[5mC]*eT; antisense) [compound 546158]
% inhibition (human PKK mRNA [1]; Table 5 experiment): 95%
percent inhibition of PKK at 0.19 μM (human PKK mRNA [2]; [4]): 5%
percent inhibition of PKK at 0.56 μM (human PKK mRNA [2]; [4]): 45%
percent inhibition of PKK at 1.67 μM (human PKK mRNA [2]; [4]): 79%
percent inhibition of PKK at 5.00 μM (human PKK mRNA [2]; [4]): 83%
IC50 (human PKK mRNA [2]; [5]): 700 nM

546188 (antisense e[5mC]*eT*e[5mC]*e[5mC]*eT*dT*dT*dA*dT*dA*dA*dA*dT*dG*dT*e[5mC]*eT*e[5mC]*eG*eA) [compound 546188]
% inhibition (human PKK mRNA [1]; Table 6 experiment): 95%
percent inhibition of PKK at 5.00 μM (human PKK mRNA [2]; HepaRG cells, electroporation, approximately 16 hours, Table 41): 97%
percent inhibition of PKK at 0.19 0μM (human PKK mRNA [2]; 0.19 0μM, HepaRG cells, electroporation, approximately 16 hours, Table 41): 27%
percent inhibition of PKK at 0.56 0μM (human PKK mRNA [2]; 0.56 0μM, HepaRG cells, electroporation, approximately 16 hours, Table 41): 69%
percent inhibition of PKK at 1.67 1μM (human PKK mRNA [2]; 1.67 1μM, HepaRG cells, electroporation, approximately 16 hours, Table 41): 88%
IC50 (human PKK mRNA [2]; 4 point dose response, HepaRG cells, Table 41): 400 nM
percent inhibition of PKK at 0.19 μM (human PKK mRNA [2]; [4]): 36%
percent inhibition of PKK at 0.56 μM (human PKK mRNA [2]; [4]): 55%
percent inhibition of PKK at 1.67 μM (human PKK mRNA [2]; [4]): 81%
percent inhibition of PKK at 5.00 μM (human PKK mRNA [2]; [4]): 83%
IC50 (human PKK mRNA [2]; [5]): 400 nM

546190 (antisense e[5mC]*eT*e[5mC]*eT*e[5mC]*dA*dT*dA*dT*d[5mC]*dA*dA*d[5mC]*dT*d[5mC]*e[5mC]*eT*eT*eT*eA) [compound 546190]
% inhibition (human PKK mRNA [1]; Table 6 experiment): 92%
percent inhibition of PKK at 0.19 μM (human PKK mRNA [2]; [6]): 33%
percent inhibition of PKK at 0.56 μM (human PKK mRNA [2]; [6]): 65%
percent inhibition of PKK at 1.67 μM (human PKK mRNA [2]; [6]): 86%
IC50 (human PKK mRNA [2]; 4 point dose response, HepaRG cells, Table 35): 400 nM
percent inhibition of PKK mRNA, 0.19 μM (human PKK mRNA [2]; HepaRG cells): 21%
percent inhibition of PKK mRNA, 0.56 μM (human PKK mRNA [2]; HepaRG cells): 34%
percent inhibition of PKK mRNA, 1.67 μM (human PKK mRNA [2]; HepaRG cells): 76%
percent inhibition of PKK mRNA, 5.00 μM (human PKK mRNA [2]; HepaRG cells): 98%
IC50 (human PKK mRNA [2]; HepaRG cells, 0.19-5.00 μM): 700 nM

546195 (antisense eG*e[5mC]*eT*eA*eA*d[5mC]*d[5mC]*dT*dT*dA*dG*dA*d[5mC]*dA*d[5mC]*eA*eT*eT*eA*eA) [compound 546195]
% inhibition (human PKK mRNA [1]; Table 6 experiment): 83%
percent inhibition of PKK at 0.19 μM (human PKK mRNA [2]; [7]): 34%
percent inhibition of PKK at 0.56 μM (human PKK mRNA [2]; [7]): 51%
percent inhibition of PKK at 1.67 μM (human PKK mRNA [2]; [7]): 79%
percent inhibition of PKK at 5.00 μM (human PKK mRNA [2]; [7]): 92%
IC50 (human PKK mRNA [2]; [8]): 500 nM
percent inhibition of PKK mRNA, 0.19 μM (human PKK mRNA [2]; HepaRG cells): 0%
percent inhibition of PKK mRNA, 0.56 μM (human PKK mRNA [2]; HepaRG cells): 27%
percent inhibition of PKK mRNA, 1.67 μM (human PKK mRNA [2]; HepaRG cells): 91%
percent inhibition of PKK mRNA, 5.00 μM (human PKK mRNA [2]; HepaRG cells): 94%
IC50 (human PKK mRNA [2]; HepaRG cells, 0.19-5.00 μM): 900 nM

546198 (antisense eT*e[5mC]*eT*eT*e[5mC]*dA*dA*d[5mC]*dA*d[5mC]*dT*dG*d[5mC]*dT*dA*eA*e[5mC]*e[5mC]*eT*eT) [compound 546198]
% inhibition (human PKK mRNA [1]; Table 6 experiment): 85%
percent inhibition of PKK at 0.19 μM (human PKK mRNA [2]; [7]): 7%
percent inhibition of PKK at 0.56 μM (human PKK mRNA [2]; [7]): 3%
percent inhibition of PKK at 1.67 μM (human PKK mRNA [2]; [7]): 45%
percent inhibition of PKK at 5.00 μM (human PKK mRNA [2]; [7]): 92%
IC50 (human PKK mRNA [2]; [8]): 1300 nM

548662 (antisense eT*eG*k[5mC]*dT*dT*dA*dA*dA*dA*dG*dT*d[5mC]*dT*k[5mC]*k[5mC]*e[5mC]) [compound 548662]
% inhibition (human PKK mRNA [3]): 5%

548663 (antisense eG*e[5mC]*k[5mC]*d[5mC]*dT*dA*dG*dA*dA*dG*dG*dG*d[5mC]*k[5mC]*k[5mC]*eA) [compound 548663]
% inhibition (human PKK mRNA [3]): 20%

548664 (antisense eG*e[5mC]*kG*dG*dG*dT*dG*dG*dT*d[5mC]*dT*dT*dG*k[5mC]*kA*e[5mC]) [compound 548664]
% inhibition (human PKK mRNA [3]): 38%

548665 (antisense eG*e[5mC]*kT*d[5mC]*d[5mC]*d[5mC]*dG*dG*d[5mC]*d[5mC]*dA*dT*dT*kA*kG*e[5mC]) [compound 548665]
% inhibition (human PKK mRNA [3]): 8%

548666 (antisense eT*e[5mC]*kT*d[5mC]*d[5mC]*dA*dT*dA*dG*dT*dG*dA*dG*kA*k[5mC]*eG) [compound 548666]
% inhibition (human PKK mRNA [3]): 1%

548669 (antisense eA*eA*kT*dG*d[5mC]*dA*dG*dG*d[5mC]*d[5mC]*dA*dG*d[5mC]*kA*kT*e[5mC]) [compound 548669]
% inhibition (human PKK mRNA [3]): 42%

548670 (antisense eG*eA*kA*dA*dA*dG*d[5mC]*d[5mC]*d[5mC]*dT*d[5mC]*d[5mC]*dG*kA*kG*e[5mC]) [compound 548670]
% inhibition (human PKK mRNA [3]): 15%

548671 (antisense e[5mC]*eA*kA*d[5mC]*dA*dA*dT*d[5mC]*d[5mC]*dA*dA*dA*dG*k[5mC]*k[5mC]*eT) [compound 548671]
% inhibition (human PKK mRNA [3]): 3%

548672 (antisense e[5mC]*e[5mC]*k[5mC]*d[5mC]*d[5mC]*d[5mC]*dA*dG*dA*dA*dA*dT*d[5mC]*k[5mC]*k[5mC]*eA) [compound 548672]
% inhibition (human PKK mRNA [3]): 40%

548673 (antisense eG*eA*k[5mC]*d[5mC]*dT*dT*dG*d[5mC]*dT*dT*d[5mC]*d[5mC]*dA*kT*kG*eT) [compound 548673]
% inhibition (human PKK mRNA [3]): 40%

548674 (antisense eG*eA*kG*dA*dG*dA*d[5mC]*dG*dG*d[5mC]*dA*d[5mC]*d[5mC]*k[5mC]*kT*eG) [compound 548674]
% inhibition (human PKK mRNA [3]): 4%

548675 (antisense eG*eG*kG*dA*dA*dG*dG*dT*dA*dG*dT*dG*dT*kT*kA*e[5mC]) [compound 548675]
% inhibition (human PKK mRNA [3]): 8%

548676 (antisense eG*eT*kG*dA*dA*dT*d[5mC]*dA*dG*dA*dG*d[5mC]*dA*kG*kT*eG) [compound 548676]
% inhibition (human PKK mRNA [3]): 63%

548677 (antisense eT*e[5mC]*kA*d[5mC]*d[5mC]*dT*dG*dT*dG*dA*dG*dT*dA*kA*k[5mC]*e[5mC]) [compound 548677]
% inhibition (human PKK mRNA [3]): 40%

548678 (antisense eG*eA*kG*dT*dT*dA*d[5mC]*d[5mC]*dT*dT*dA*d[5mC]*dA*kA*kG*e[5mC]) [compound 548678]
% inhibition (human PKK mRNA [3]): 22%

548679 (antisense eT*e[5mC]*kT*d[5mC]*dA*dA*dG*d[5mC]*dA*dG*d[5mC]*d[5mC]*dT*kA*kT*eT) [compound 548679]
% inhibition (human PKK mRNA [3]): 0%

548680 (antisense eG*e[5mC]*k[5mC]*d[5mC]*d[5mC]*dT*d[5mC]*dT*dT*dA*dA*dA*dT*kA*kG*e[5mC]) [compound 548680]
% inhibition (human PKK mRNA [3]): 9%

548681 (antisense eG*eA*kT*dA*dT*d[5mC]*dA*dT*d[5mC]*dA*dT*d[5mC]*d[5mC]*k[5mC]*kA*eA) [compound 548681]
% inhibition (human PKK mRNA [3]): 22%

548682 (antisense eG*eT*kA*dT*d[5mC]*d[5mC]*d[5mC]*d[5mC]*dT*dT*dT*dT*d[5mC]*kT*kA*eT) [compound 548682]
% inhibition (human PKK mRNA [3]): 0%

548683 (antisense eA*eG*kT*dA*dT*d[5mC]*dT*d[5mC]*dA*dT*dG*dT*dG*k[5mC]*k[5mC]*eT) [compound 548683]
% inhibition (human PKK mRNA [3]): 46%

548684 (antisense e[5mC]*eA*kA*dG*dA*d[5mC]*d[5mC]*dT*dT*dG*d[5mC]*dT*dT*kG*k[5mC]*e[5mC]) [compound 548684]
% inhibition (human PKK mRNA [3]): 24%

548685 (antisense eT*eA*kG*dT*d[5mC]*d[5mC]*dA*d[5mC]*dT*dA*d[5mC]*dA*d[5mC]*kA*kG*e[5mC]) [compound 548685]
% inhibition (human PKK mRNA [3]): 24%

548686 (antisense eA*e[5mC]*kG*dA*d[5mC]*dA*dA*dT*dG*dG*dG*dA*dT*kT*k[5mC]*eA) [compound 548686]
% inhibition (human PKK mRNA [3]): 0%

548687 (antisense eG*eA*kA*dT*d[5mC]*dT*d[5mC]*d[5mC]*d[5mC]*dT*dG*dA*dG*kT*k[5mC]*eA) [compound 548687]
% inhibition (human PKK mRNA [3]): 20%

548688 (DNA eT*eA*kG*dA*dG*dG*dG*dA*dT*d[5mC]*d[5mC]*d[5mC]*dA*kG*kG*eA) [compound 548688]
% inhibition (human PKK mRNA [3]): 0%

548689 (DNA e[5mC]*e[5mC]*kA*dG*dG*dT*dG*d[5mC]*dA*dG*d[5mC]*dA*d[5mC]*kG*kG*eA) [compound 548689]
% inhibition (human PKK mRNA [3]): 12%
